From US11865176B2, “Compositions and methods of modulating anti-tumor immunity” (Dana-Farber Cancer Institute, Inc., priority 2016, dated 2024)

Tests used:
[1] = test system: MC38; assay: MC38 syngeneic colon adenocarcinoma model; format: in vivo, mouse
Protocol: For syngeneic models, MC38 and CT26 cells were injected into 6-8 week C57BL/6 or Balb/c female mice subcutaneously, respectively. Vehicle control, CDK4/6 inhibitors (trilaciclib or palbociclib) were treated alone or together with PD-1 antibody starting at the indicated time point, using an intermittent dosing schedule of 3 days on, 4 days off until experimental endpoint. PD-1 antibody was administered 3 times a week (Monday, Wednesday and Friday) at 200 μg/mouse through I.P. injection.

[2] = test system: tumor-infiltrating CD3+ T cells; assay: Single-cell RNA-seq of tumor-infiltrating CD3+ T cells from KP GEMM lung tumors; format: in vivo, mouse
Source text: Library preparation and pre-processing: Single-cell suspensions from KrasG^12D/+Trp53^fl/fl GEMM mice treated with trilaciclib were isolated as described for tumor-infiltrating immune cells, with modifications. After isolation, live cells were stained and sorted for the CD45+CD3+DAPI-population and plated at one cell/well of a skirted twin.tec 96-well plate (Eppendorf) containslxTCL buffer (Qiagen cat #1031576) spiked with ERCC (Ambion, 1:2,000,000 dilution ratio). A total of four 96-well plates were generated, two plates with and two plates without ERCC spike-ins. After sorting, full-length RNA-seq from isolated single cells was performed according to SMART-seq2 protocol with modifications. Briefly, total RNA was purified using RNA-SPRI beads. Poly(A)+ mRNA was converted to cDNA for amplification. The converted cDNA transcript was subject to barcoding specific to each sample using transposon-based fragmentation that used dual-indexing. For single-cell sequencing, each cell was given its own combination of barcodes. Barcoded cDNA fragments were then pooled prior to sequencing. Sequencing was carried out as paired-end (PE) 2×36 bp with an additional 8 cycles for each index on NexSeq 500 desktop sequencer (Illumina). To obtain quantitative mapping information, PE reads were mapped to the mouse genome (mm9), concatenated with ERCC sequences for spiked-in samples, by STAR (56). Estimated transcript counts and transcripts per million (TPM) for the mouse Gencode vM1 annotation, concatenated with ERCC sequence information for spiked-in samples, were obtained using the pseudo-aligner Kallisto (57). Aggregated and library scaled TPM values for genes were obtained according to the methods described (58) and were used in further downstream differential distribution, Gene Ontology and cell cycle analysis. […] Genes were considered not expressed if TPM<1 and were subsequently removed if not detected in at least 10% of remaining cells. The single-cell RNA-seq results have been deposited in NCBI's Gene Expression Omnibus and are accessible through GEO Series accession number GSE89477 (https://www.ncbi.nlm.nih.gov/geo/query/acc.cgi?acc=GSE89477).
We used a multi-step approach using the R package SCONE to identify the optimal normalization strategy and account for possible batch effects, observed and hidden technical covariates (59). […] Next, these genes were used in the SCONE framework as negative control genes for unwanted variation for all plates. We continued with highest scored normalization strategy according to SCONE metrics, which included adjusting for batch and biological effects, removal of observed technical variation based on previously identified quality metrics, scaling for library size with DESeq, and imputing drop-out events using a combined clustering and probabilistic scoring algorithm.
To assign cells to a cell-cycle stage we applied the cyclone classification tool as previously described (60).
Subsequently, we combined two approaches. […] Next, these genes were used to perform PCA and the 100 most correlated and anti-correlated genes for the first 5 principal components were retained for reducing dimensionality and separating cells in gene expression space with t-SNE. Distinct groups were identified applying density based clustering (dbscan) on the t-SNE generated coordinates, resulting in three (3) groups of cells.
Genes that display differential distribution between previously identified groups or between treatments were discovered by performing pairwise comparisons with the scDD (http://biorxiv.org/content/early/2015/12/29/035501) package in R. Enriched biological processes were identified using the online GOrilla tool (http://bmcbioinformatics.biomedcentral.com/articles/10.1186/1471-2105-10-48).

[3] = test system: patient-derived organotypic tumor spheroids (PDOTS); assay: Cytokine profiling of patient-derived organotypic tumor spheroids (PDOTS) in 3D microfluidic culture; format: cell-based, human; conditions: 100 nM; day 1 and day 3
Protocol: Experiments were performed as described (28). Briefly, fresh tumor specimens from human patients were received in media (DMEM) on ice and minced in 10 cm dishes (on ice) in a sterile field. S2 fractions (40-100 μm) were used for ex vivo culture as previously described (28). An aliquot of the S2 fraction was pelleted and re-suspended in type I rat-tail collagen (Corning, Corning, NY) and the spheroid-collagen mixture was then injected into the center gel region of the 3D microfluidic culture device. After 30 minutes at 37° C., collagen hydrogels containing PDOTS/MDOTS were hydrated with media with indicated treatments. MDOTS were treated with IgG isotype control (10 μg/mL, clone 2A3) or rat-α-mouse anti-PD-1 (10 μg/ml, clone RMP1-14, BioXCell). […]
Mouse lung broncho alveolar lavage (BAL) was performed by intracheal injection of 2 ml of sterile PBS followed by collection by aspiration. Cytokines were measured using 19-plex mouse magnetic Luminex kit (R&D systems), Mouse Cytokine 23-plex Assay (Bio-Rad) or Human Cytokine 40-plex Assay (Bio-Rad) and measured on Bio-Plex 200 system (Bio-Rad). […] Fold changes relative to the control were calculated and plotted as log 2FC. Lower and upper limits of quantitation (LLOQ/ULOQ) were derived from standard curves for cytokines above or below detection. […]

CN1CCN(c2ccc(Nc3ncc4cc5n(c4n3)C3(CCCCC3)CNC5=O)nc2)CC1 [trilaciclib]
increase in CD4+ IL-2 production ([1]; TILs, trilaciclib added to PD-1 blockade, day 17): ~2 fold
tumor growth ([1]; intermittent trilaciclib (100 mg/kg, 3 days on, 4 days off) added to PD-1 blockade): nearly eliminated tumor growth
increase in levels of IFNγ in CD8+ TILs ([1]; trilaciclib added to PD-1 blockade, day 17): ~10 fold
log2(G1T28 vs vehicle) ([2]; gene Aifl): Aifl^65 1.045
log2(G1T28 vs vehicle) ([2]; gene Ccl2): Ccl2^63, 690.6
log2(G1T28 vs vehicle) ([2]; gene Ccl5): Ccl5^63 0.7416
log2(G1T28 vs vehicle) ([2]; gene Ccna2): Ccna2^71 −1.194
log2(G1T28 vs vehicle) ([2]; gene Ccnd1): Ccnd1^67 0.8223
log2(G1T28 vs vehicle) ([2]; gene Ccr2): Ccr2^61 3.091
log2(G1T28 vs vehicle) ([2]; gene Cd22): Cd22^72 −1.232
log2(G1T28 vs vehicle) ([2]; gene Cd86): Cd86^70 0.621
log2(G1T28 vs vehicle) ([2]; gene Clcf1): Clcf1^63 1.47
log2(G1T28 vs vehicle) ([2]; gene Csfl): Csfl^63 0.5966
log2(G1T28 vs vehicle) ([2]; gene Cx3cr1): Cx3cr1^22 1.233
log2(G1T28 vs vehicle) ([2]; gene Cxcl1): Cxcl1^68 0.7175
log2(G1T28 vs vehicle) ([2]; gene Ece1): Ece1^62 2.974
log2(G1T28 vs vehicle) ([2]; gene Il2ra): Il2ra^66 0.9413
log2(G1T28 vs vehicle) ([2]; gene Il7r): Il7r^64 1.461
log2(G1T28 vs vehicle) ([2]; gene Tnfsf8): Tnfsf8^63 1.037
IL-2 signaling activation ([2]; group 3, and group 1 to a lesser extent): significantly increased IL-2 signaling activation
proportion of T cells in the G1 phase ([2]; groups 1 and 3): increased the proportion of T cells in the G1 phase
levels of Th1 cytokines (CXCL9, CXCL10, IFNγ, IL-16, CXCL16) [3]: increased levels of Th1 cytokines
